The values that follow are results of earlier work, collected in publication PMC8481536, “Wells–Dawson phosphotungstates as mushroom tyrosinase inhibitors: a speciation study” (Scientific Reports, 2021).

This data set addresses T1, AbPPO4 (Agaricus bisporus, UniProt C7FF05, S179N/V121A).
T1 construct: GST (glutathione-S-transferase) (N, cleaved yes); made in house; host or cells: E. coli BL21(DE3)
Conditions: cited from earlier work.

T1 sequence (C7FF05 1-383 V121A/S179N): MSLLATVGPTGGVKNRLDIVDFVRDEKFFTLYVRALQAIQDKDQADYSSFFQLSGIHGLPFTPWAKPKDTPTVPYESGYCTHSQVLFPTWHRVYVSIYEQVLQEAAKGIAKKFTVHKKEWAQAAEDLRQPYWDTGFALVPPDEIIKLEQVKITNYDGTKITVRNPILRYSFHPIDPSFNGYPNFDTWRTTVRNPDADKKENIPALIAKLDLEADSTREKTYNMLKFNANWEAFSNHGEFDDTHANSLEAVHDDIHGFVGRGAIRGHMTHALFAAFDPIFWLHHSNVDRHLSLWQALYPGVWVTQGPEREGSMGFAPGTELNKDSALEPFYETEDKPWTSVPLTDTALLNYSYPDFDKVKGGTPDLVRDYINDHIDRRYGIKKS

Turning to `N[C@@H](Cc1ccc(O)c(O)c1)C(=O)O` [L-DOPA, L-3,4−dihydroxyphenylalanine], the Michaelis constant (Km) (commonly the concentration of substrate that gives half-maximal velocity) was 26.1 mM.
